{
  "source": "paper PMC7316490",
  "about": "“Dihydrofolate Reductase Is a Valid Target for Antifungal Development in the Human Pathogen Candida albicans” (mSphere, 2020)",
  "key": {"Candida tropicalis": {"test_system": "Candida tropicalis", "experiment": "Antifungal susceptibility testing, other species", "type": "cell-based", "conditions": "YNB medium at pH 5 and pH 7", "protocol": "(§1) Strains of C. albicans (A), C. glabrata (B), C. tropicalis (C), and C. parapsilosis (D) were seeded into YNB medium buffered at pH 5 or pH 7 at approximately 1 × 10^4 cells/ml in the presence of a range of MTX concentrations. After 48 h at 30°C, growth was quantified as the OD600 and expressed as a percentage of the value for the untreated controls. The values presented here are the average of two replicates and are representative of two experiments. The susceptibility to MTX at the highest concentration at each pH was compared to that of the other pH values using a two-tailed Student's t test (*, P < 0.01; **, P < 0.0001).\n(§2) Stock solutions of MTX were prepared at 10 mM in dimethyl sulfoxide (DMSO) and diluted as needed in the same solvent. Each C. albicans strain was grown overnight in YPD medium at 30°C and diluted to approximately 1 × 10^4 cells/ml in YNB medium or RPMI 1640 medium, and 100 μl of each cell suspension was transferred to the wells of a round-bottom 96-well plate. An additional 100 μl of YNB or RPMI 1640 medium containing 2× the final desired concentration of MTX was then added to each well. The final concentration of DMSO was 0.5% for all treatments. Plates were then incubated at 30°C before growth was quantified after 24 and 48 h by measuring the OD600 using a Cytation 5 plate reader (Bio-Tek Instruments, Inc.). MIC50 values were identified visually using the CLSI antifungal susceptibility assay and then confirmed by quantifying growth by the OD600 value. The growth of each strain at each drug concentration was then expressed relative to that of the DMSO-alone control. The susceptibility to MTX at the highest concentration at each pH was compared to that of the other pH values using a two-tailed Student's t test."}, "Candida parapsilosis": {"test_system": "Candida parapsilosis", "experiment": "Antifungal susceptibility testing, other species", "type": "cell-based", "conditions": "YNB medium at pH 5 and pH 7", "protocol": "as §1, §2"}, "Candida glabrata": {"test_system": "Candida glabrata", "experiment": "Antifungal susceptibility testing, other species", "type": "cell-based", "conditions": "YNB medium at pH 5 and pH 7", "protocol": "as §1, §2"}, "[1]": {"test_system": "C. albicans cdr1Δ/Δ, tac1Δ/Δ and mdr1Δ/Δ mutants", "experiment": "Antifungal susceptibility testing of efflux pump mutants", "type": "cell-based, Candida albicans", "conditions": "for MIC50: Candida albicans", "protocol": "C. albicans cdr1Δ/Δ (A), tac1Δ/Δ (B), or mdr1Δ/Δ (C) strains, or that overexpress CDR1 (A), TAC1 (B), or MDR1 (C) from the PTEF1 promoter, were subcultured to approximately 1 × 10^4 cells/ml into YNB medium at pH 5 or pH 7 supplemented with a range of MTX concentrations. After 48 h at 30°C, growth was quantified as the OD600 value and expressed as a percentage of the value for the untreated wells. The values presented here are the average of two replicates and are representative of two independent experiments. WT, wild type.\nas §2"}, "[2]": {"test_system": "wild-type C. albicans strain (SC5314)", "experiment": "Antifungal susceptibility testing (dose-response growth, OD600)", "type": "cell-based, Candida albicans", "conditions": "for MIC50: Candida albicans", "protocol": "A wild-type C. albicans strain (SC5314) was seeded at 1 × 10^4 cells/ml into YNB medium without folate or PABA with the indicated supplements and increasing concentrations of MTX. After 48 h of incubation at 30°C, growth was quantified as the OD600 value and expressed as a percentage of the value for the DMSO-treated control. The values presented here are the average of two replicates and are representative of two independent experiments.\nApproximately 1 × 10^4 cells/ml of a wild-type C. albicans strain was seeded into a 96-well plate with increasing concentrations of MTX in YNB pH 5, YNB pH 7, and RPMI pH 7 media. After 48 h, the OD600 was measured and expressed as a percentage of the value for the DMSO-treated control. The results presented here are the averages of two replicates and are representative of two independent experiments.\nas §2, with “Each C. albicans strain was grown overnight in YPD medium at 30°C and diluted to approximately 1 × 10^4 cells/ml in YNB medium or RPMI 1640 medium, and 100 μl of each cell suspension was transferred to the wells of a round-bottom 96-well plate. An additional 100 μl of YNB or RPMI 1640 medium containing 2× the final desired concentration of MTX was then added to each well.” left out"}},
  "data": [
    {"smiles": "CN(Cc1cnc2nc(N)nc(N)c2n1)c1ccc(C(=O)N[C@@H](CCC(=O)O)C(=O)O)cc1", "note": "[Methotrexate, methotrexate]", "values": [
      {"measurement": "growth inhibition (in words)", "setting": "Candida tropicalis", "value": "modest and pH-dependent growth inhibition"},
      {"measurement": "growth inhibition (in words)", "setting": "Candida parapsilosis", "value": "modest and pH-dependent growth inhibition"},
      {"measurement": "growth inhibition (in words)", "setting": "Candida glabrata", "value": "insensitive at either pH"},
      {"measurement": "MIC50", "setting": "[1]; pH 5", "value": 0.39, "unit": "µM"},
      {"measurement": "MIC50", "setting": "[1]; pH 7", "value": "> 6.25", "unit": "µM"},
      {"measurement": "susceptibility of mdr1Δ/Δ mutant versus MDR1+ control strains", "setting": "[1]; YNB medium at pH 5 or 7", "value": "not significantly different"},
      {"measurement": "MIC50", "setting": "[2]; SC5314, YNB medium with additional supplements of folic acid (up to 25 μM)", "value": 0.078, "unit": "µM"},
      {"measurement": "MIC50", "setting": "[2]; SC5314, YNB with addition of 250 μM folinic acid", "value": "~5", "unit": "µM"},
      {"measurement": "MIC50", "setting": "[2]; SC5314, pH 5, YNB pH 5 medium", "value": "~0.78", "unit": "µM"},
      {"measurement": "MIC50", "setting": "[2]; SC5314, pH 7, RPMI 1640 pH 7 medium", "value": "> 50", "unit": "µM"},
      {"measurement": "MIC50", "setting": "[2]; SC5314, pH 7, YNB pH 7 medium", "value": "> 50", "unit": "µM"},
      {"measurement": "MIC50", "setting": "[2]; SC5314, unbuffered standard YNB medium", "value": "~0.78", "unit": "µM"},
      {"measurement": "effect of 1 μM DHF, THF or 5MTHF supplement on MTX-mediated growth inhibition", "setting": "[2]; YNB medium", "value": "had no effect"},
      {"measurement": "drop of MIC50 with folic acid supplements", "setting": "[2]; versus standard YNB medium", "value": "~10", "unit": "fold"}
    ]}
  ]
}
